System: cytokines in the blood
Test: Plasma cytokines after intravenous infusion of TLR-7 agonists in cynomolgus monkeys
Type: in vivo, cynomolgus monkey
Details: thirty minute i.v. infusion
Description: The objective of the following study was to observe the effect of the in vivo administration of different amounts of small molecule agonists of TLR-7, N-(4-(4-amino-2-(2-methoxyethyl)-1H-imidazo[4,5-c]quinolin-1-yl)butyl)-N-(tetrahydro-2H-pyran-4-yl)acetamide (SM1) and N-(4-(4-amino-2-ethyl-1H-imidazo[4,5-c]quinolin-1-yl)butyl)-N-(1,1-dioxidothietan-3-yl)acetamide (SM3), on expression of various cytokines in the blood in a cynomolgus monkey model. The various cytokines whose expression was determined include interferon alpha, interleukin 1 receptor antagonist, interleukins 4, 6, 8, 10, 12, 15, 18, monocyte chemoattractant protein 1, granulocyte-colony stimulating factor, macrophage inflammatory protein 1 beta, tumor necrosis factor alpha, and vascular endothelial growth factor.
A defined single dose of one of the agonist compounds was administered intravenously to cynomolgus monkeys in a thirty minute infusion. […]
Cytokines levels were determined using an interferon alpha Elisa kit (e.g., VeriKine™ Cynomolgus/Rhesus IFNα ELISA Kit) and a Luminex® non-human primate cytokine/chemokine kit (e.g., Milliplex Non-Human Primate Cytokine/Chemokine Magnetic Premixed 23 Plex Panel), in accordance to the manufacturers' instructions. […]

SMILES | cytokine levels in plasma (FIGS. 10a-10kk) (male and female cynomolgus monkeys, 30, 100 or 300 μg/kg, then at 14 days 1, 3 or 10 mg/kg) | cytokine levels in plasma (FIGS. 11a-11m) (male cynomolgus monkeys, 300 μg/kg, 1, 3 and 10 mg/kg)
COCCc1nc2c(N)nc3ccccc3c2n1CCCCN(C(C)=O)C1CCOCC1 [SM1, N-(4-(4-amino-2-(2-methoxyethyl)-1H-imidazo[4,5-c]quinolin-1-yl)butyl)-N-(tetrahydro-2H-pyran-4-yl)acetamide] | production of various cytokines in a highly individual manner | –
CCc1nc2c(N)nc3ccccc3c2n1CCCCN(C(C)=O)C1CS(=O)(=O)C1 [SM3, N-(4-(4-amino-2-ethyl-1H-imidazo[4,5-c]quinolin-1-yl)butyl)-N-(1,1-dioxidothietan-3-yl)acetamide] | – | production of various cytokines in a highly individual manner

Source: patent US20200191798A1, “DOSE DETERMINATION FOR IMMUNOTHERAPEUTIC AGENTS” (BIONTECH RNA PHARMACEUTICALS GMBH, priority 2016, published 2020)
